Data reported in PubChem BioAssay AID1963968 (Molecular Pharmacology Branch, DTP, NCI, 2024).

System: 945468-187-T-J3-PDC spheroids with HUVEC/MSC, viability
Test: Anticancer human tumor 945468-187-T-J3-PDC patient-derived rectal carcinoma cell line growth inhibition [PI3K]
Conditions: for IC50: curve of first compound; for viability, T/C: stronger effect = lower value
Procedure, shortened: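 Targeted small molecules plus PI3K inhibitors, half-log dose series from Cmax (default top 10 microM), were applied to heterotypic spheroids of cancer cells with HUVEC and MSCs. Viability indicated growth inhibition.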

[1] = second compound 0.0316 µM, first compound 0.0316 µM
[2] = second compound 0.0316 µM, first compound 0.1 µM
[3] = second compound 0.1 µM, first compound 0.0316 µM
[4] = second compound 0.1 µM, first compound 0.1 µM
[5] = second compound 0.316 µM, first compound 0.0316 µM
[6] = second compound 0.316 µM, first compound 0.1 µM
[7] = second compound 1 µM, first compound 0.0316 µM
[8] = second compound 1 µM, first compound 0.1 µM
[9] = second compound 3.16 µM, first compound 0.0316 µM
[10] = second compound 3.16 µM, first compound 0.1 µM
[11] = second compound 10 µM, first compound 0.0316 µM
[12] = second compound 10 µM, first compound 0.1 µM
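Also: spheroids exposed to agents for 7 days before viability read.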
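For viability, T/C in this document: 100% = DMSO vehicle control viability.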

Compound `CC(C)n1nc(-c2ccc3oc(N)nc3c2)c2c(N)ncnc21` + Cc1nc(NC(=O)N2CCCC2C(N)=O)sc1-c1ccnc(C(C)(C)C(F)(F)F)c1 has an IC50 (second compound 0.0316 µM) greater than 0.1 µM, an IC50 (second compound 0.1 µM) greater than 0.1 µM and an IC50 (second compound 0.316 µM) greater than 0.1 µM. It also gave an IC50 (second compound 1 µM) of 0.077 µM, an IC50 (second compound 3.16 µM) of 0.0302 µM and an IC50 (second compound 10 µM) of 0.0107 µM. It also gave a viability, T/C (second compound 0.0316 µM, first compound 0.000316 µM) of 105%, a viability, T/C (second compound 0.0316 µM, first compound 0.001 µM) of 118% and a viability, T/C (second compound 0.0316 µM, first compound 0.00316 µM) of 98.8%. It also gave a viability, T/C (second compound 0.0316 µM, first compound 0.01 µM) of 114%, a viability, T/C [1] of 127% and a viability, T/C [2] of 65.5%. It also gave a viability, T/C (second compound 0.1 µM, first compound 0.000316 µM) of 109%, a viability, T/C (second compound 0.1 µM, first compound 0.001 µM) of 109% and a viability, T/C (second compound 0.1 µM, first compound 0.00316 µM) of 95.4%. The viability, T/C (second compound 0.1 µM, first compound 0.01 µM) was 115%, the viability, T/C [3] was 118% and the viability, T/C [4] was 54.5%. The viability, T/C (second compound 0.316 µM, first compound 0.000316 µM) was 113%, the viability, T/C (second compound 0.316 µM, first compound 0.001 µM) was 104% and the viability, T/C (second compound 0.316 µM, first compound 0.00316 µM) was 97.5%. It also gave a viability, T/C (second compound 0.316 µM, first compound 0.01 µM) of 121%, a viability, T/C [5] of 111% and a viability, T/C [6] of 53.3%. For the same compound, the viability, T/C (second compound 1 µM, first compound 0.000316 µM) was 116%, the viability, T/C (second compound 1 µM, first compound 0.001 µM) was 114% and the viability, T/C (second compound 1 µM, first compound 0.00316 µM) was 101%. The viability, T/C (second compound 1 µM, first compound 0.01 µM) was 109%, the viability, T/C [7] was 84% and the viability, T/C [8] was 39.6%. For the same compound, the viability, T/C (second compound 3.16 µM, first compound 0.000316 µM) was 108%, the viability, T/C (second compound 3.16 µM, first compound 0.001 µM) was 104% and the viability, T/C (second compound 3.16 µM, first compound 0.00316 µM) was 102%. The viability, T/C (second compound 3.16 µM, first compound 0.01 µM) was 77.2%, the viability, T/C [9] was 49.9% and the viability, T/C [10] was 29.7%. The viability, T/C (second compound 10 µM, first compound 0.000316 µM) was 68%, the viability, T/C (second compound 10 µM, first compound 0.001 µM) was 53.3% and the viability, T/C (second compound 10 µM, first compound 0.00316 µM) was 64.3%. The viability, T/C (second compound 10 µM, first compound 0.01 µM) was 50.2%, the viability, T/C [11] was 31.8% and the viability, T/C [12] was 22.7%.

With `CC1(C)CCC(CN2CCN(c3ccc(C(=O)NS(=O)(=O)c4ccc(NCC5CCOCC5)c([N+](=O)[O-])c4)c(Oc4cnc5[nH]ccc5c4)c3)CC2)=C(c2ccc(Cl)cc2)C1` + Cc1nc(NC(=O)N2CCCC2C(N)=O)sc1-c1ccnc(C(C)(C)C(F)(F)F)c1 the IC50 (second compound 0.0316 µM) was 6.84 µM, the IC50 (second compound 0.1 µM) was 6.42 µM and the IC50 (second compound 0.316 µM) was 6.58 µM. The IC50 (second compound 1 µM) was 6.68 µM, the IC50 (second compound 3.16 µM) was 6.32 µM and the IC50 (second compound 10 µM) was 4.27 µM. For the same compound, the viability, T/C [1] was 95.4%, the viability, T/C [2] was 109% and the viability, T/C (second compound 0.0316 µM, first compound 0.316 µM) was 97.5%. It also gave a viability, T/C (second compound 0.0316 µM, first compound 1 µM) of 120%, a viability, T/C (second compound 0.0316 µM, first compound 3.16 µM) of 125% and a viability, T/C (second compound 0.0316 µM, first compound 10 µM) of 20.8%. For the same compound, the viability, T/C [3] was 100%, the viability, T/C [4] was 108% and the viability, T/C (second compound 0.1 µM, first compound 0.316 µM) was 101%. It also gave a viability, T/C (second compound 0.1 µM, first compound 1 µM) of 117%, a viability, T/C (second compound 0.1 µM, first compound 3.16 µM) of 123% and a viability, T/C (second compound 0.1 µM, first compound 10 µM) of 12.5%. The viability, T/C [5] was 107%, the viability, T/C [6] was 112% and the viability, T/C (second compound 0.316 µM, first compound 0.316 µM) was 113%. The viability, T/C (second compound 0.316 µM, first compound 1 µM) was 120%, the viability, T/C (second compound 0.316 µM, first compound 3.16 µM) was 130% and the viability, T/C (second compound 0.316 µM, first compound 10 µM) was 12.2%. The viability, T/C [7] was 117%, the viability, T/C [8] was 115% and the viability, T/C (second compound 1 µM, first compound 0.316 µM) was 106%. For the same compound, the viability, T/C (second compound 1 µM, first compound 1 µM) was 113%, the viability, T/C (second compound 1 µM, first compound 3.16 µM) was 114% and the viability, T/C (second compound 1 µM, first compound 10 µM) was 15.8%. The viability, T/C [9] was 116%, the viability, T/C [10] was 101% and the viability, T/C (second compound 3.16 µM, first compound 0.316 µM) was 101%. For the same compound, the viability, T/C (second compound 3.16 µM, first compound 1 µM) was 122%, the viability, T/C (second compound 3.16 µM, first compound 3.16 µM) was 104% and the viability, T/C (second compound 3.16 µM, first compound 10 µM) was 14.5%. It also gave a viability, T/C [11] of 70.7%, a viability, T/C [12] of 59% and a viability, T/C (second compound 10 µM, first compound 0.316 µM) of 63.8%. The viability, T/C (second compound 10 µM, first compound 1 µM) was 68.4%, the viability, T/C (second compound 10 µM, first compound 3.16 µM) was 63.3% and the viability, T/C (second compound 10 µM, first compound 10 µM) was 12.1%.
